Data: PMC8474119, “Discovery and SAR Evolution of Pyrazole Azabicyclo[3.2.1]octane Sulfonamides as a Novel Class of Non-Covalent N-Acylethanolamine-Hydrolyzing Acid Amidase (NAAA) Inhibitors for Oral Administration” (Journal of Medicinal Chemistry, 2021)

Key:
[1] = Liver microsomal stability assay (NADPH), human; assay type: in vitro ADME; details: for % compound remaining at last time-point, LM_NADPH: human liver microsomes, 4.6 μM, 60 min; for half-life at 4.6 μM: male, pH 7.5, human liver microsomes, read-out: LM_NADPH t1/2
Experimental: Pooled CD1 mouse (M1000, male), IGS Sprague-Dawley rat (R1000, male), and human (H1000, male) liver microsomes were purchased from SEKISUI XenoTech. 10 mM DMSO stock solution of the test compound (39 or 50) was preincubated at 37 °C for 15 min with mouse, rat, or human liver microsomes in 0.1 M Tris-HCl buffer (pH 7.5) with 10% DMSO. The final concentration was 4.6 μM. After preincubation, the cofactor (NADPH) was added to the incubation mixture, and the incubation was continued at 37 °C for 1 h. At each time point (0, 5, 15, 30, and 60 min), 30 μL of incubation mixture was diluted with 200 μL cold CH3CN spiked with 200 nM of an appropriate internal standard, followed by centrifugation at 3.270g for 15 min. The supernatant was further diluted with H2O (1:1) for analysis. A reference incubation mixture of each specie (microsomes without cofactors) was prepared for each test compound and analyzed at t = 0 and 60 min in order to verify the compound stability in the matrix. The two time points were diluted as for the time points of the incubation mixture above. The supernatants were analyzed by LC–MS/MS on a Waters ACQUITY UPLC-MS TQD system consisting of a triple quadrupole detector (TQD) mass spectrometer equipped with an electrospray ionization interface and a photodiode array eλ detector (PDA) from Waters Inc. (Milford, MA, USA). Electrospray ionization was applied in positive mode. Compound-dependent parameters as MRM transitions and collision energy were developed for each compound. The analyses were run on an ACQUITY UPLC BEH C18 (50 × 2.1 mm ID, particle size 1.7 μm) with a VanGuard BEH C18 precolumn (5 × 2.1 mm ID, particle size 1.7 μm) at 40 °C, using H2O + 0.1% HCOOH (A) and CH3CN + 0.1% HCOOH (B) as the mobile phase. The percentage of test compound remaining at each time point relative to t = 0 was calculated by the response factor on the basis of the internal standard peak area. The percentage of test compound versus time was plotted and fitted by GraphPad Prism (GraphPad Software, Version 5 for Windows, CA, USA, www.graphpad.com) to estimate the compound’s half-life (t1/2), which was reported as mean value along with the standard deviation (n = 3).

[2] = Plasma stability assay, rat plasma; assay type: in vitro ADME; details: for % compound remaining at last time-point, plasma: 2.0 μM, 120 min; for half-life at 2 μM: n ≥ 3, read-out: plasma t1/2
Experimental: 10 mM DMSO stock solution of test compound (39 or 50) was diluted 50-fold with DMSO/H2O (1:1) and incubated at 37 °C for 2 h with mouse or rat plasma added with 5% DMSO (preheated at 37 °C for 10 min). The final compound’s concentration was 2.0 μM. At each time point (0, 5, 15, 30, 60, and 120 min), 50 μL of incubation mixture was diluted with 150 μL cold CH3CN spiked with 200 nM of warfarin, as the internal standard, followed by centrifugation at 3.270g for 20 min. The supernatant was further diluted with H2O (1:1) and analyzed by LC–MS/MS on a Waters ACQUITY UPLC-MS TQD system consisting of a triple quadrupole detector (TQD) mass spectrometer equipped with an electrospray ionization interface and a photodiode array eλ detector (PDA) from Waters Inc. (Milford, MA, USA). Electrospray ionization was applied in positive mode. Compound-dependent parameters as MRM transitions and collision energy were developed for each compound. The analyses were run on an ACQUITY UPLC BEH C18 (50 × 2.1 mm ID, particle size 1.7 μm) with a VanGuard BEH C18 precolumn (5 × 2.1 mm ID, particle size 1.7 μm) at 40 °C, using H2O + 0.1% HCOOH (A) and CH3CN + 0.1% HCOOH (B) as the mobile phase. The percentage of the test compound remaining at each time point relative to t = 0 was calculated by the response factor on the basis of the internal standard peak area. The percentage of test compound versus time was plotted and fitted by GraphPad Prism (GraphPad Software, Version 5 for Windows, CA, USA, www.graphpad.com) to estimate the compound’s half-life (t1/2), which was reported as mean value along with the standard deviation (n = 3).

CCOCc1cnc(O[C@H]2C[C@H]3CC[C@@H](C2)N3S(=O)(=O)c2c(C)n[nH]c2C)cn1 [Compound 50, (1R,3r,5S)-8-((3,5-Dimethyl-1H-pyrazol-4-yl)sulfonyl)-3-((5-(ethoxymethyl)pyrazin-2-yl)oxy)-8-azabicyclo[3.2.1]octane]
% compound remaining at last time-point, LM_NADPH [1]: 88%
half-life at 4.6 μM [1]: > 1 h
% compound remaining at last time-point, plasma [2]: 93%
half-life at 2 μM [2]: > 2 h

CCCCc1ccc(O[C@H]2C[C@H]3CC[C@@H](C2)N3S(=O)(=O)c2c(C)n[nH]c2C)cc1 [Compound 39, (1R,3r,5S)-3-(4-Butylphenoxy)-8-((3,5-dimethyl-1H-pyrazol-4-yl)sulfonyl)-8-azabicyclo[3.2.1]octane]
% compound remaining at last time-point, LM_NADPH [1]: 83%
half-life at 4.6 μM [1]: > 1 h
% compound remaining at last time-point, plasma [2]: 93%
half-life at 2 μM [2]: > 2 h
